Reference: patent publication US20240199623A1 (ILDONG PHARMACEUTICAL CO., LTD., priority 2020, published 2024)
In brackets after ≈: the same amount, converted by molar mass.

Assays:
[1] = Phosphate-buffered saline (PBS) solubility of compounds; type: physicochemical; conditions: aqueous buffer, thermodynamic from solid, PBS pH 7.5, 0.5 mg/mL, vortexed 90 min, filtered, LC-MS/MS, read-out: Solubility Range
Procedure: PBS solutions (pH 7.5) were prepared according to the following compositions and stored at 4° C. Test compounds were dissolved in PBS (pH 7.5) at 0.5 mg/mL and vortexed for 90 min. The PBS solution was sequentially filtered through a 0.45, 1.2, […] syringe filter. Concentration of test compounds were determined using LC-MS/MS with appropriate dilution of the samples.

human wild type-CFTR = human wild type-CFTR (Homo sapiens, UniProt P13569); test: Cell-based YFP assay; set-up: expressed in transfected cells; host or cells: CHO-K1 (Chinese hamster ovary); conditions: CHO-K1 cells expressing human wild type-CFTR and YFP-H148Q/I152L; forskolin 20 μM = 100% activity; read-out: Cell-based YFP Assay (EC50) Concentration Range
How it was run: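 I⁻-driven YFP fluorescence quenching at 37 °C: 2 s baseline, addition of 140 mM iodide solution, then 14 s of readings at 0.4 s intervals. Cells were CHO-K1 expressing human wild-type CFTR plus YFP-H148Q/I152L. EC50 derived from averaged triplicates.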

human wild type-CFTR, sequence (P13569 whole entry): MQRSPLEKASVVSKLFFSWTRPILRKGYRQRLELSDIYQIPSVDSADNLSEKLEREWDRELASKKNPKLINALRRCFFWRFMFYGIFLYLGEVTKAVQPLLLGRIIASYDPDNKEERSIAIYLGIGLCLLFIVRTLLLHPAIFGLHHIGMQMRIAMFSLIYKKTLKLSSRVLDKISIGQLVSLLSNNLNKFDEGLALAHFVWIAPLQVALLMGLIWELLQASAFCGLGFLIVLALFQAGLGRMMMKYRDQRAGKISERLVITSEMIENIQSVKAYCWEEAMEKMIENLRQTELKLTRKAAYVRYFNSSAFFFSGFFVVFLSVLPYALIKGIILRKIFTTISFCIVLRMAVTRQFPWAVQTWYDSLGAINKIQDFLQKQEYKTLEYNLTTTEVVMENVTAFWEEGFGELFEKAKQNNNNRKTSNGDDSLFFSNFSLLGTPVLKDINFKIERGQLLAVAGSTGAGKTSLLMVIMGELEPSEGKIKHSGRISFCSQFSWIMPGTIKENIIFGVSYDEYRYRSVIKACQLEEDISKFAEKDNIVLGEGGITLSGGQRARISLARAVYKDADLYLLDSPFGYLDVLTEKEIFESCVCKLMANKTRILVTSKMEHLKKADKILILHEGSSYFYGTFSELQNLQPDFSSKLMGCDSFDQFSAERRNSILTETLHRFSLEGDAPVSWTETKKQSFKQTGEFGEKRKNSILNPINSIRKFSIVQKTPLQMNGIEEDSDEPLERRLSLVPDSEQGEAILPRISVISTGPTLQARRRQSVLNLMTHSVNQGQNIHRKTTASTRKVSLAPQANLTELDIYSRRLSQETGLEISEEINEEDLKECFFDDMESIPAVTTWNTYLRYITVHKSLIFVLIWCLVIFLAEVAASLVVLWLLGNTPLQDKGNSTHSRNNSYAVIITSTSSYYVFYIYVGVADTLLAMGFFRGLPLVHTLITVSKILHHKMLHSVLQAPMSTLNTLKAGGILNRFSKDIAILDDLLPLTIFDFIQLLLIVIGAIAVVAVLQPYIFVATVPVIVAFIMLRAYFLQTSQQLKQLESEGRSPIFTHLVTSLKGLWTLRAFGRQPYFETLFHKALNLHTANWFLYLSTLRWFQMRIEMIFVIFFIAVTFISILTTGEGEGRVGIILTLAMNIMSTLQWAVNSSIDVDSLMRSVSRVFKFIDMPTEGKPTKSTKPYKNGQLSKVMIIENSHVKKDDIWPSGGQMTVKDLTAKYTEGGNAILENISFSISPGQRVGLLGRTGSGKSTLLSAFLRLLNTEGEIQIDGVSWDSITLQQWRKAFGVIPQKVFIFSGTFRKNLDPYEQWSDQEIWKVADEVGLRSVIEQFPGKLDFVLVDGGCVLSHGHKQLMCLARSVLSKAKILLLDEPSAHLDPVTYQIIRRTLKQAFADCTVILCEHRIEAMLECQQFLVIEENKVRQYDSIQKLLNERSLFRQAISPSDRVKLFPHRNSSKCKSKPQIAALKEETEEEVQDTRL

Row | Compound | solubility at 90 min [1] | EC50 (human wild type-CFTR)
1 | COc1ccc(-c2ccnc3cc(C(=O)Nc4ccc(C(=O)OCCN5CCOCC5)cc4)nn23)cc1OC [Compound 164, 2-morpholinoethyl 4-(7-(3,4-dimethoxyphenyl)pyrazolo [1,5-a]pyrimidine-2-carboxamido)benzoate] | < 0.1 µg/mL | < 200 nM
2 | COc1ccc(-c2ccnc3cc(C(=O)Nc4ccc(C(=O)OCc5ccccc5)cn4)nn23)cc1OC [Compound 114, benzyl 6-(7-(3,4-dimethoxyphenyl)pyrazolo [1,5-a]pyrimidine-2-carboxamido)nicotinate] | < 0.1 µg/mL | < 200 nM
3 | COC(=O)c1ccc(NC(=O)c2cc3nccc(-c4cc(OC)c(OC)c(OC)c4)n3n2)cc1 [Compound 32, methyl 4-(7-(3,4,5-trimethoxyphenyl)pyrazolo [1,5-a]pyrimidine-2-carboxamido)benzoate] | < 0.1 µg/mL | < 200 nM
4 | COc1ccc(-c2ccnc3cc(C(=O)Nc4ccc(C(=O)OCCCN5CCN(C)CC5)cc4)nn23)cc1OC [Compound 165, 3-(4-methylpiperazin-1-yl)propyl 4-(7-(3,4-dimethoxyphenyl)pyrazolo[1,5-a]pyrimidine-2-carboxamido)benzoate] | < 0.1 µg/mL | 200 to 2000 nM
5 | COc1ccc(-c2ccnc3cc(C(=O)Nc4ccc(C(=O)OCCCN5CCOCC5)c(F)c4)nn23)cc1OC [Compound 163, 3-morpholinopropyl 4-(7-(3,4-dimethoxyphenyl)pyrazolo [1,5-a]pyrimidine-2-carboxamido)-2-fluorobenzoate] | < 0.1 µg/mL | 200 to 2000 nM
6 | COC(=O)[C@H](C)NC(=O)c1ccc(NC(=O)c2cc3nccc(-c4ccc(OC)c(OC)c4)n3n2)cc1 [Compound 42, methyl (4-(7-(3,4-dimethoxyphenyl)pyrazolo [1,5-a]pyrimidine-2-carboxamido)benzoyl)-L-alaninate] | < 0.1 µg/mL | < 200 nM
7 | COc1ccc(-c2ccnc3cc(C(=O)Nc4ccc(C(=O)N5CCOCC5)c(Cl)c4)nn23)cc1OC [Compound 160, N-(3-chloro-4-(morpholine-4-carbonyl)phenyl)-7-(3,4-dimethoxyphenyl) pyrazolo[1,5-a]pyrimidine-2-carboxamide] | < 0.1 µg/mL | 200 to 2000 nM
8 | COc1ccc(-c2ccnc3cc(C(=O)Nc4ccc(C(=O)O)cc4F)nn23)cc1OC [Compound 156, 4-(7-(3,4-dimethoxyphenyl)pyrazolo[1,5-a]pyrimidine-2-carboxamido)-3-fluorobenzoic acid] | 0.1 to 10 µg/mL (≈ 0.229 to 22.9 µM) | < 200 nM

Continued, values first:

Row | solubility at 90 min [1] | EC50 (human wild type-CFTR) | Compound
9 | < 0.1 µg/mL | < 200 nM | COC(=O)[C@@H](NC(=O)c1ccc(NC(=O)c2cc3nccc(-c4ccc(OC)c(OC)c4)n3n2)cc1)C(C)C [Compound 58, methyl (4-(7-(3,4-dimethoxyphenyl)pyrazolo [1,5-a]pyrimidine-2-carboxamido)benzoyl)-L-valinate]
10 | < 0.1 µg/mL | < 200 nM | COc1ccc(-c2ccnc3cc(C(=O)Nc4ccc(C(=O)OCCCN5CCOCC5)cc4)nn23)cc1OC [Compound 121, 3-morpholinopropyl 4-(7-(3,4-dimethoxyphenyl)pyrazolo [1,5-a]pyrimidine-2-carboxamido)benzoate]
11 | 0.1 to 10 µg/mL (≈ 0.169 to 16.9 µM) | 200 to 2000 nM | COc1ccc(-c2ccnc3cc(C(=O)N[C@H]4CC[C@H](C(=O)N5CCN(C(=O)OC(C)(C)C)CC5)CC4)nn23)cc1OC [Compound 76, tert-butyl 4-((1R,4R)-4-(7-(3,4-dimethoxyphenyl)pyrazolo [1,5-a]pyrimidine-2-carboxamido)cyclohexane-1-carbonyl)piperazine-1-carboxylate]
12 | > 10 µg/mL | ≥ 2000 nM | COc1ccc(-c2ccnc3cc(C(=O)Nc4cccc(C(=O)O)c4)nn23)cc1OC [Compound 16, 3-(7-(3,4-dimethoxyphenyl)pyrazolo[1,5-a]pyrimidine-2-carboxamido)benzoic acid]
